Source: patent US20230301300A1, “HERBICIDAL COMPOSITIONS” (SYNGENTA CROP PROTECTION AG, priority 2020, published 2023)

How the values were obtained:
Format in all cases: in vivo
Glycine max (GLXMA) = experiment: B2 Post-Emergence Efficacy - Test 2; conditions: 15 days after application; for Herbicidal activity GLXMA: 0-100 scale; for Herbicidal activity on a 0-100 scale, GLXMA: 0=no damage, 100=total kill
Description: (§1) Seeds of a variety of test species (see Table B1) were sown in standard soil in pots. After cultivation for 12 days (post-emergence) under controlled conditions in a glasshouse (at 24/18° C. or 20/16° C., at day/night; 16 hours light; 65% humidity), the plants were sprayed with an aqueous spray solution derived from the formulation of the technical active ingredient dissolved in IF50 (see Table B2 for composition) and adjuvant (Genapol X080) was added to the spray solution at a rate of 0.2% v/v.
(§2) After application, the test plants were grown in a glasshouse under controlled conditions (as above) and watered twice daily. Herbicidal activity was evaluated 15 days after application on a 0-100 scale. The results, where 0=no damage to test plant and 100=total kill of test plant are shown below in Tables 8 to 11.

[1] = tested on: Alopecurus myosuroides (ALOMY); experiment: B2 Post-Emergence Efficacy - Test 2; conditions: 15 days after application, 0-100 scale
Description: as §1, §2

Zea mays (ZEAMX) = experiment: B2 Post-Emergence Efficacy - Test 2; conditions: 15 days after application; for Herbicidal activity ZEAMX: 0-100 scale; for Herbicidal activity on a 0-100 scale, ZEAMX: 0=no damage, 100=total kill
Description: as §1, §2

[2] = tested on: Amaranthus retroflexus (AMARE); experiment: B2 Post-Emergence Efficacy - Test 2; conditions: 15 days after application, 0-100 scale
Description: as §1, §2

Eleisine indica (ELEIN) = experiment: B2 Post-Emergence Efficacy - Test 2; conditions: 15 days after application, 0=no damage, 100=total kill
Description: as §1, §2

Bromus tectorum (BROTE) = experiment: B2 Post-Emergence Efficacy - Test 2; conditions: 15 days after application, 0-100 scale
Description: as §1, §2

Beta vulgaris (BEAVA) = experiment: B2 Post-Emergence Efficacy - Test 2; conditions: 15 days after application, 0-100 scale
Description: as §1, §2

[3] = tested on: Echinochloa crus galli (ECHCG); experiment: B2 Post-Emergence Efficacy - Test 2; conditions: 15 days after application, 0=no damage, 100=total kill
Description: as §1, §2

[4] = tested on: Abutilon theophrasti (ABUTH); experiment: B2 Post-Emergence Efficacy - Test 2; conditions: 15 days after application, 0-100 scale
Description: as §1, §2

Hordeum vulgare (HORVW) = experiment: B2 Post-Emergence Efficacy - Test 2; conditions: 15 days after application, 0-100 scale
Description: as §1, §2

Setaria faberi (SETFA) [5] = experiment: B2 Post-Emergence Efficacy - Test 2; conditions: 15 days after application, 0=no damage, 100=total kill
Description: as §1, §2

[6] = tested on: Ipomoea hederacea (IPOHE); experiment: B1 Post-Emergence Efficacy - Test 1; conditions: 1000 g/ha, after 13 days, five point scale
How it was run: (§3)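 Seeds sown in standard soil grow for 8 days under glasshouse conditions (24/16° C., 14 hours light, 65% humidity). Seedlings are then sprayed at 1000 g/ha from an acetone/water (50:50), 0.5% Tween 20 formulation. Damage is rated after 13 days on a five-point scale.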

[7] = tested on: Amaranthus retoflexus (AMARE); experiment: B1 Post-Emergence Efficacy - Test 1; conditions: 1000 g/ha, after 13 days, five point scale
How it was run: as §3

Lolium perenne (LOLPE) = experiment: B1 Post-Emergence Efficacy - Test 1; conditions: 1000 g/ha, after 13 days, five point scale
How it was run: as §3

Solanum nigrum (SOLNI) = experiment: B1 Post-Emergence Efficacy - Test 1; conditions: 1000 g/ha, after 13 days, five point scale
How it was run: as §3

Setaria faberi (SETFA) [8] = experiment: B1 Post-Emergence Efficacy - Test 1; conditions: 1000 g/ha, after 13 days, five point scale
How it was run: as §3

[9] = tested on: Echinochloa crus-galli (ECHCG); experiment: B1 Post-Emergence Efficacy - Test 1; conditions: 1000 g/ha, after 13 days, five point scale
How it was run: as §3

Cc1nn(C)c(=O)c(-c2c(F)ccc(Cl)c2CCc2ccc(Cl)cc2)c1OC(=O)C(C)C [Compound 1.089, [5-[3-chloro-2-[2-(4-chlorophenyl)ethyl]-6-fluoro-phenyl]-1,3-dimethyl-6-oxo-pyridazin-4-yl] 2-methylpropanoate]
90: Herbicidal activity ALOMY ([1]; 500 g/Ha) | Herbicidal activity ZEAMX (Zea mays (ZEAMX); 250 g/Ha) | Herbicidal activity on a 0-100 scale, ZEAMX (Zea mays (ZEAMX); 250 g/Ha) | Herbicidal activity AMARE ([2]; 60 g/Ha) | Herbicidal activity on a 0-100 scale, ELEIN (Eleisine indica (ELEIN); 250 g/Ha) | Herbicidal activity on a 0-100 scale, ELEIN (Eleisine indica (ELEIN); 500 g/Ha) | Herbicidal activity BEAVA (Beta vulgaris (BEAVA); 15 g/Ha) | Herbicidal activity BEAVA (Beta vulgaris (BEAVA); 250 g/Ha) | Herbicidal activity BEAVA (Beta vulgaris (BEAVA); 500 g/Ha) | Herbicidal activity on a 0-100 scale, ECHCG ([3]; 125 g/Ha) | Herbicidal activity on a 0-100 scale, ECHCG ([3]; 250 g/Ha) | Herbicidal activity ABUTH ([4]; 30 g/Ha)
0: Herbicidal activity ZEAMX (Zea mays (ZEAMX); 15 g/Ha) | Herbicidal activity on a 0-100 scale, ZEAMX (Zea mays (ZEAMX); 15 g/Ha) | Herbicidal activity on a 0-100 scale, ELEIN (Eleisine indica (ELEIN); 15 g/Ha) | Herbicidal activity on a 0-100 scale, ELEIN (Eleisine indica (ELEIN); 30 g/Ha) | Herbicidal activity BROTE (Bromus tectorum (BROTE); 15 g/Ha) | Herbicidal activity BROTE (Bromus tectorum (BROTE); 30 g/Ha) | Herbicidal activity on a 0-100 scale, SETFA (Setaria faberi (SETFA) [5]; 15 g/Ha)
30: Herbicidal activity ZEAMX (Zea mays (ZEAMX); 60 g/Ha) | Herbicidal activity on a 0-100 scale, ZEAMX (Zea mays (ZEAMX); 60 g/Ha) | Herbicidal activity ZEAMX (Zea mays (ZEAMX); 125 g/Ha) | Herbicidal activity on a 0-100 scale, ZEAMX (Zea mays (ZEAMX); 125 g/Ha) | Herbicidal activity BROTE (Bromus tectorum (BROTE); 125 g/Ha) | Herbicidal activity HORVW (Hordeum vulgare (HORVW); 250 g/Ha) | Herbicidal activity on a 0-100 scale, SETFA (Setaria faberi (SETFA) [5]; 60 g/Ha)
50: Herbicidal activity ALOMY ([1]; 30 g/Ha) | Herbicidal activity ALOMY ([1]; 60 g/Ha)
5 (5=80-100%): percentage damage caused to the plant, IPOHE [6] | percentage damage caused to the plant, AMARE [7] | percentage damage caused to the plant, LOLPE (Lolium perenne (LOLPE)) | percentage damage caused to the plant, SOLNI (Solanum nigrum (SOLNI)) | percentage damage caused to the plant, SETFA (Setaria faberi (SETFA) [8]) | percentage damage caused to the plant, ECHCG [9]
60: Herbicidal activity BROTE (Bromus tectorum (BROTE); 250 g/Ha) | Herbicidal activity HORVW (Hordeum vulgare (HORVW); 500 g/Ha) | Herbicidal activity on a 0-100 scale, SETFA (Setaria faberi (SETFA) [5]; 125 g/Ha) | Herbicidal activity on a 0-100 scale, SETFA (Setaria faberi (SETFA) [5]; 250 g/Ha)
70: Herbicidal activity GLXMA (Glycine max (GLXMA); 30 g/Ha) | Herbicidal activity on a 0-100 scale, GLXMA (Glycine max (GLXMA); 30 g/Ha) | Herbicidal activity on a 0-100 scale, ELEIN (Eleisine indica (ELEIN); 60 g/Ha) | Herbicidal activity BROTE (Bromus tectorum (BROTE); 500 g/Ha) | Herbicidal activity ABUTH ([4]; 15 g/Ha)
80: Herbicidal activity GLXMA (Glycine max (GLXMA); 60 g/Ha) | Herbicidal activity on a 0-100 scale, GLXMA (Glycine max (GLXMA); 60 g/Ha) | Herbicidal activity ALOMY ([1]; 125 g/Ha) | Herbicidal activity ALOMY ([1]; 250 g/Ha) | Herbicidal activity AMARE ([2]; 15 g/Ha) | Herbicidal activity AMARE ([2]; 30 g/Ha) | Herbicidal activity on a 0-100 scale, ELEIN (Eleisine indica (ELEIN); 125 g/Ha) | Herbicidal activity BEAVA (Beta vulgaris (BEAVA); 30 g/Ha) | Herbicidal activity BEAVA (Beta vulgaris (BEAVA); 60 g/Ha) | Herbicidal activity BEAVA (Beta vulgaris (BEAVA); 125 g/Ha) | Herbicidal activity on a 0-100 scale, ECHCG ([3]; 15 g/Ha) | Herbicidal activity on a 0-100 scale, ECHCG ([3]; 30 g/Ha) | Herbicidal activity on a 0-100 scale, ECHCG ([3]; 60 g/Ha) | Herbicidal activity on a 0-100 scale, SETFA (Setaria faberi (SETFA) [5]; 500 g/Ha)
100: Herbicidal activity GLXMA (Glycine max (GLXMA); 250 g/Ha) | Herbicidal activity on a 0-100 scale, GLXMA (Glycine max (GLXMA); 250 g/Ha) | Herbicidal activity GLXMA (Glycine max (GLXMA); 500 g/Ha) | Herbicidal activity on a 0-100 scale, GLXMA (Glycine max (GLXMA); 500 g/Ha) | Herbicidal activity ZEAMX (Zea mays (ZEAMX); 500 g/Ha) | Herbicidal activity on a 0-100 scale, ZEAMX (Zea mays (ZEAMX); 500 g/Ha) | Herbicidal activity AMARE ([2]; 125 g/Ha) | Herbicidal activity AMARE ([2]; 250 g/Ha) | Herbicidal activity AMARE ([2]; 500 g/Ha) | Herbicidal activity on a 0-100 scale, ECHCG ([3]; 500 g/Ha) | Herbicidal activity ABUTH ([4]; 60 g/Ha) | Herbicidal activity ABUTH ([4]; 125 g/Ha) | Herbicidal activity ABUTH ([4]; 250 g/Ha) | Herbicidal activity ABUTH ([4]; 500 g/Ha)
20: Herbicidal activity ALOMY ([1]; 15 g/Ha) | Herbicidal activity ZEAMX (Zea mays (ZEAMX); 30 g/Ha) | Herbicidal activity on a 0-100 scale, ZEAMX (Zea mays (ZEAMX); 30 g/Ha) | Herbicidal activity HORVW (Hordeum vulgare (HORVW); 60 g/Ha) | Herbicidal activity HORVW (Hordeum vulgare (HORVW); 125 g/Ha) | Herbicidal activity on a 0-100 scale, SETFA (Setaria faberi (SETFA) [5]; 30 g/Ha)
10: Herbicidal activity BROTE (Bromus tectorum (BROTE); 60 g/Ha) | Herbicidal activity HORVW (Hordeum vulgare (HORVW); 15 g/Ha) | Herbicidal activity HORVW (Hordeum vulgare (HORVW); 30 g/Ha)
